This note sets out measurements from US7727989B2, “4-benzimidazol-2-yl-pyridazine-3-one-derivatives, production and use thereof in medicaments” (Sanofi-Aventis Deutschland GmbH, priority 2004, dated 2010).

The target of the first data set is human recombinant GSK-3β (Homo sapiens, UniProt P49841). Kind of data set: GSK-3β activity, AlphaScreen, primed glycogen synthase substrate peptide. Format: biochemical.
Chain of human recombinant GSK-3β (P49841 whole entry): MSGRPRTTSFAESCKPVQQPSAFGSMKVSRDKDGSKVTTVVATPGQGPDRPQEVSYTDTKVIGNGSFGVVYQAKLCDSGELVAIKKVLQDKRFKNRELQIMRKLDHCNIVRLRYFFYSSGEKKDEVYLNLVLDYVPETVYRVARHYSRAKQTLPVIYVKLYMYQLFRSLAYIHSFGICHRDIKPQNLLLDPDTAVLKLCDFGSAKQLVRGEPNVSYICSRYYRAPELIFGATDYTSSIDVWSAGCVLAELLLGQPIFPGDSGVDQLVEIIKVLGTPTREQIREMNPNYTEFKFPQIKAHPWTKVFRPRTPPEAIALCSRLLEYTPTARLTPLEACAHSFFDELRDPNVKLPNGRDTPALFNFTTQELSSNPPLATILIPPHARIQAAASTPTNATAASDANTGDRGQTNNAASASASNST
Details: not given
As for the experimental part: Functional measurements to ascertain IC50 values:
GSK-3β activity is measured using human recombinant GSK-3β and a primed (pre-phosphorylated) substrate peptide (derived from glycogen synthase and containing the phosphorylation sites 3a, b, and c) on the basis of the AlphaScreen technology in 384-well plate format (small volume plate, white, Greiner). […] After adding […] Donor beads (20 μg/ml) and […] antibody (anti-phosphoglycogen synthase 1:2000)-coated Acceptor beads (40 μg/ml) in AlphaScreen detection buffer (20 mM Hepes, pH 7.4, 10 mM MgCl, 40 mM EDTA, 1 mM DTT, 0.1 mg/ml BSA), plates are incubated at room temperature (in the dark) overnight and then placed in a reader (Alphaquest or Fusion) to measure final fluorescence. IC50 values are calculated from the fitted curve corrected for bank values (absence of GSK-3β) and performed in triplicate.
For orientation: In Alpha technology, singlet oxygen from a donor bead excites a nearby acceptor bead.
As a reminder, the IC50 is the concentration at which inhibition is half-maximal. `Cn1cc(-c2cc(-c3nc4ccccc4[nH]3)c(=O)[nH]n2)ccc1=O` [Example 50, 4-(1H-Benzimidazol-2-yl)-6-(1-methyl-6-oxo-1,6-dihydropyridin-3-yl)-2H-pyridazin-3-one]: the IC50 amounted to 0.157 µM.

The data set is the same for the next values; noted with them: human recombinant GSK-3β 0.18 nM, biot. phospho-glycogen synthase peptide 34 nM, 10 μM ATP, 60 min room temperature, triplicate; read-out: IC50.
On to `O=c1[nH]nc(-c2ccncc2)cc1-c1nc2ccncc2[nH]1` [Example 38, 4-(3H-imidazol[4,5-c]pyridin-2-yl)-6-pyridin-4-yl-2H-pyridazin-3-one], for which the IC50 amounted to 0.032 µM.
Regarding `CN1CCN(Cc2ccc3nc(-c4cc(-c5ccncc5)n[nH]c4=O)[nH]c3c2)CC1` [Example 42, 4-[6-(4-Methylpiperazin-1-ylmethyl)-1H-benzimidazol-2-yl]-6-pyridin-4-yl-2H-pyridazin-3-one], the concentration for half-maximal inhibition (IC50) was 0.007 µM.
On the same count and under the same terms, as for `N#Cc1ccc2[nH]c(-c3cc(-c4ccncc4)n[nH]c3=O)nc2c1` [Example 21, 4-(5-Cyano-1H-benzimidazol-2-yl)-6-pyridin-4-yl-2H-pyridazin-3-one], the figure is 0.057 µM; as for `Cc1cc(-c2cc(-c3nc4ccc(C(F)(F)F)cc4[nH]3)c(=O)[nH]n2)cc(C)c1O` [Example 25, 6-(4-Hydroxy-3,5-dimethylphenyl)-4-(6-tri-fluoromethyl-1H-benzimidazol-2-yl)-2H-pyridazin-3-one], 0.056 µM; as for `O=c1[nH]nc(-n2ccnc2)cc1-c1nc2ccccc2[nH]1` [Example 68, 4-(1H-Benzimidazol-2-yl)-6-imidazol-1-yl-2H-pyridazin-3-one], 0.063 µM.
Still for that read-out and setting: as for `CN1CCN(Cc2ccc3nc(-c4cc(-c5ccccc5)n[nH]c4=O)[nH]c3c2)CC1` [Example 53, 4-[6-(4-Methylpiperazin-1-ylmethyl)-1H-benzimidazol-2-yl]-6-phenyl-2H-pyridazin-3-one], the figure is 0.042 µM; as for `O=c1[nH]nc(-c2ccnc(NC3CC3)n2)cc1-c1nc2ccccc2[nH]1` [Example 58, 4-(1H-Benzimidazol-2-yl)-6-(2-cyclopropylaminopyrimidin-4-yl)-2H-pyridazin-3-one], 0.05 µM.
Still for that read-out and setting: as for `O=c1[nH]nc(-c2ccncc2)cc1-c1nc2cc(C(F)(F)F)ccc2[nH]1` [Example 6, 4-(6-Tri-fluoromethyl-1H-benzimidazol-2-yl)-6-pyridin-4-yl-2H-pyridazin-3-one], the figure is 0.016 µM; as for `O=c1[nH]nc(-c2ccsc2)cc1-c1nc2ccccc2[nH]1` [Example 46, 4-(1H-Benzimidazol-2-yl)-6-thiophen-3-yl-2H-pyridazin-3-one], 0.028 µM.

Tested on in the next data set: not given
Experiment: not given
Details: not given
What is called melting point is the temperature of the solid-liquid transition. For the compound `CN1CCN(CCCNC(=O)c2ccc3nc(-c4cc(-c5ccncc5)n[nH]c4=O)[nH]c3c2)CC1` [Example 9, 2-(3-Oxo-6-pyridin-4-yl-2,3-dihydropyridazin-4-yl)-1H-benzimidazole-5-carboxylic acid [3-(4-methylpiperazin-1-yl)propyl]amide], the melting point was above 300 °C.
Same read-out and setting: as for `N#Cc1ccc2[nH]c(-c3cc(-c4ccncc4)n[nH]c3=O)nc2c1` [Example 21, 4-(5-Cyano-1H-benzimidazol-2-yl)-6-pyridin-4-yl-2H-pyridazin-3-one], the figure is > 350 °C (dec.).
Still for that read-out and setting: as for `O=C(NCCCO)c1ccc2nc(-c3cc(-c4ccncc4)n[nH]c3=O)[nH]c2c1` [Example 10, 2-(3-Oxo-6-pyridin-4-yl-2,3-dihydropyridazin-4-yl)-1H-benzimidazole-5-carboxylic acid (3-hydroxypropyl)amide], the figure is > 300 °C (dec.); as for `O=c1[nH]nc(-c2ccncc2)cc1-c1nc2ccc(Br)cc2[nH]1` [Example 22, 4-(5-Bromo-1H-benzimidazol-2-yl)-6-pyridin-4-yl-2H-pyridazin-3-one], > 350 °C (dec.); as for `CCCCNc1nccc(-c2cc(-c3nc4ccc(Cl)cc4[nH]3)c(=O)[nH]n2)n1` [Example 26, 6-(2-Butylaminopyrimidin-4-yl)-4-(6-chloro-1H-benzimidazol-2-yl)-2H-pyridazin-3-one], 305 °C.
Still for that read-out and setting: as for `O=c1[nH]nc(-c2ccncc2)cc1-c1nc2cc(Cl)ccc2[nH]1` [Example 5, 4-(6-Chloro-1H-benzimidazol-2-yl)-6-pyridin-4-yl-2H-pyridazin-3-one], the figure is > 300 °C (dec.); as for `O=C(NCCNC1CCCCC1)c1ccc2nc(-c3cc(-c4ccncc4)n[nH]c3=O)[nH]c2c1` [Example 8, 2-(3-Oxo-6-pyridin-4-yl-2,3-dihydropyridazin-4-yl)-1H-benzimidazole-5-carboxylic acid (2-cyclohexylaminoethyl)amide], 271 °C; as for `O=c1[nH]nc(-c2ccncc2)cc1-c1nc2ccccc2[nH]1` [Example 28, 4-(1H-Benzimidazol-2-yl)-6-pyridin-4-yl-2H-pyridazin-3-one], > 350 °C (dec.).
Take `CCCCNc1nccc(-c2cc(-c3nc4ccc(C(F)(F)F)cc4[nH]3)c(=O)[nH]n2)n1` [Example 27, 6-(2-Butylaminopyrimidin-4-yl)-4-(6-tri-fluoromethyl-1H-benzimidazol-2-yl)-2H-pyridazin-3-one]: the melting point was 288 °C.
Still for that read-out and setting: as for `Cc1cccc2nc(-c3cc(-c4ccncc4)n[nH]c3=O)[nH]c12` [Example 17, 4-(7-Methyl-1H-benzimidazol-2-yl)-6-pyridin-4-yl-2H-pyridazin-3-one], the figure is > 350 °C (dec.).
Same read-out and setting: as for `Cc1cc(-c2nc3cc(Cl)ccc3[nH]2)c(=O)[nH]n1` [Example 11, 4-(5-Chloro-1H-benzimidazol-2-yl)-6-methyl-2H-pyridazin-3-one], the figure is > 300 °C (dec.).
The same measure, in the same setting: as for `O=c1[nH]nc(-c2ccncc2)cc1-c1nc2cc(C(F)(F)F)ccc2[nH]1` [Example 6, 4-(6-Tri-fluoromethyl-1H-benzimidazol-2-yl)-6-pyridin-4-yl-2H-pyridazin-3-one], the figure is > 300 °C (dec.); as for `CN1CCN(c2ccc3[nH]c(-c4cc(-c5ccncc5)n[nH]c4=O)nc3c2)CC1` [Example 19, 4-[5-(4-Methylpiperazin-1-yl)-1H-benzimidazol-2-yl]-6-pyridin-4-yl-2H-pyridazin-3-one], > 350 °C (dec.); as for `CNc1nccc(-c2cc(-c3nc4cc(Cl)ccc4[nH]3)c(=O)[nH]n2)n1` [Example 14, 4-(5-Chloro-1H-benzimidazol-2-yl)-6-(2-methylaminopyrimidin-4-yl)-2H-pyridazin-3-one], > 300 °C (dec.).
Take `O=c1[nH]nc(-c2ccncc2)cc1-c1nc2cc(F)ccc2[nH]1` [Example 20, 4-(5-Fluoro-1H-benzimidazol-2-yl)-6-pyridin-4-yl-2H-pyridazin-3-one]: the melting point was > 350 °C (dec.).
The same measure, in the same setting: as for `COc1ccc2nc(-c3cc(-c4ccncc4)n[nH]c3=O)[nH]c2c1` [Example 7, 4-(6-Methoxy-1H-benzimidazol-2-yl)-6-pyridin-4-yl-2H-pyridazin-3-one], the figure is > 300 °C (dec.); as for `Cc1cc2nc(-c3cc(-c4ccncc4)n[nH]c3=O)[nH]c2cc1C` [Example 18, 4-(5,6-Dimethyl-1H-benzimidazol-2-yl)-6-pyridin-4-yl-2H-pyridazin-3-one], > 350 °C (dec.).
